Key:
[1] = molecular target: full-length MALT1 protein (Strep-MALT1(1-824)-His) (Homo sapiens (Human), UniProt Q9UDY8); assay: MALT1 Biochemical Protease Assay (Ac-LRSR-AMC substrate); details: 10 nM FL MALT1, 200 μM Ac-LRSR-AMC, 4 h at RT; read-out: MALT1_Biochemical activity (Ac-LRSR-amc) IC50
Procedure, shortened: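 Full-length MALT1 pre-incubated with compounds (30 μM to 0.5 nM, 11 threefold steps) for 50 min at RT. After Ac-LRSR-AMC was added, the reaction ran 4 h at RT and AMC fluorescence was read. IC50 and Hill slope from curve fitting against no-enzyme and no-compound controls.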

[2] = system: IL6 secretion by TMD8 ABC-DLBCL cells; assay: Human IL6 Mesoscale assay (TMD-8); assay type: cell-based; details: Homo sapiens, TMD8; TMD-8 cells, 24 h
Procedure, shortened: (§1)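 Read-out: MSD electrochemiluminescence of IL6/IL10 in supernatants. Cells (100,000/well, no beta-mercaptoethanol) were exposed to compounds at 15 μM down to 58.6 nM, 1:2 dilutions, for 24 h at 37° C, 5% CO2. Normalised between DMSO (high) and RN486 (low) controls.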

[3] = system: IL10 secretion by TMD8 ABC-DLBCL cells; assay: Human IL10 Mesoscale assay (TMD-8); assay type: cell-based; details: Homo sapiens, TMD8; TMD-8 cells, 24 h
Procedure, shortened: as §1

Chain of full-length MALT1 protein (Strep-MALT1(1-824)-His) (Q9UDY8 whole entry): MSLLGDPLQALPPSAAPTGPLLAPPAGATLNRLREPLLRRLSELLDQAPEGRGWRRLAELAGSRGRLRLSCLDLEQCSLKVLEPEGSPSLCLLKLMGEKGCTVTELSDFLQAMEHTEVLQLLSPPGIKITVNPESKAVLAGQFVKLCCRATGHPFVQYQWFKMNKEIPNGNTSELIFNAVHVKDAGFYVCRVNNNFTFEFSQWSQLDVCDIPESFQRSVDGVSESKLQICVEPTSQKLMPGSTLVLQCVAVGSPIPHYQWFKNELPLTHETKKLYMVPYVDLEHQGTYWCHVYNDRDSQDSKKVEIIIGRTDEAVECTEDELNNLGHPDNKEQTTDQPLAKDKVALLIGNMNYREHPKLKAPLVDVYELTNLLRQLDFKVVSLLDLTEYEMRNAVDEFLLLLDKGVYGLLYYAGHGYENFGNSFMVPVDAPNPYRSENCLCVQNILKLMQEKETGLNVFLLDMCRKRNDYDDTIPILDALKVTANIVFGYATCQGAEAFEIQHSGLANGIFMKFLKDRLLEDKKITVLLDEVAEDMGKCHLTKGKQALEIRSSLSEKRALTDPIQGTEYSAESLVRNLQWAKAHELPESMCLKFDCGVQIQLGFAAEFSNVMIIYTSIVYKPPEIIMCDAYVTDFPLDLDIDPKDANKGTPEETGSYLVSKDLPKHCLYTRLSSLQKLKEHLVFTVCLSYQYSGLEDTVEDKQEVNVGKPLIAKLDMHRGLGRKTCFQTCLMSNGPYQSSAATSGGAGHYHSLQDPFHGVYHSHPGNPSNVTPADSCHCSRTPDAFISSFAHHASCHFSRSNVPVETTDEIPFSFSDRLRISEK

IC50 [1] | IC50 [2] | IC50 [3] | SMILES
447 nM | 1260 nM | 617 nM | O=C(Nc1cnc(OC(F)F)c(Cl)c1)c1cnn(-c2cncc3ccccc23)c1C(F)(F)F [Cpd 106, N-(5-chloro-6-(difluoromethoxy)pyridin-3-yl)-1-(isoquinolin-4-yl)-5-(trifluoromethyl)-1H-pyrazole-4-carboxamide]
631 nM | 398 nM | 135 nM | Cc1cc(NC(=O)c2cnn(-c3cccc4ncccc34)c2C(F)(F)F)cnc1-c1nnnn1C [Cpd 240]
5750 nM | 12300 nM | 2090 nM | CS(=O)(=O)c1cc(NC(=O)c2cnn(-c3cccc4ncccc34)c2C(F)(F)F)ccc1-n1nccn1 [Cpd 215, N-(3-(methylsulfonyl)-4-(2H-1,2,3-triazol-2-yl)phenyl)-1-(quinolin-5-yl)-5-(trifluoromethyl)-1H-pyrazole-4-carboxamide]
15 nM | 151 nM | 155 nM | O=C(Nc1cnc(-c2ncco2)c(Cl)c1)c1cnn(-c2cccc3ncccc23)c1C(F)(F)F [Cpd 91, N-(5-chloro-6-(oxazol-2-yl)pyridin-3-yl)-1-(quinolin-5-yl)-5-(trifluoromethyl)-1H-pyrazole-4-carboxamide]
355 nM | 102 nM | 85 nM | CC(=O)c1cc(-n2ncc(C(=O)Nc3cnc(-n4nccn4)c(Cl)c3)c2C(F)(F)F)c2ccccc2n1 [Cpd 375, 1-(2-acetylquinolin-4-yl)-N-(5-chloro-6-(2H-1,2,3-triazol-2-yl)pyridin-3-yl)-5-(trifluoromethyl)-1H-pyrazole-4-carboxamide]
776 nM | 708 nM | 1120 nM | COc1cc(NC(=O)c2cnn(-c3cccc4ncccc34)c2C(F)(F)F)cnc1-n1ccnn1 [Cpd 235, N-(5-methoxy-6-(1H-1,2,3-triazol-1-yl)pyridin-3-yl)-1-(quinolin-5-yl)-5-(trifluoromethyl)-1H-pyrazole-4-carboxamide]
316 nM | 52 nM | 49 nM | O=C(Nc1cnc(-n2nccn2)c(Cl)c1)c1cnn(-c2cncc3sc(C(F)F)cc23)c1C(F)(F)F [Cpd 399, N-(5-chloro-6-(2H-1,2,3-triazol-2-yl)pyridin-3-yl)-1-(2-(difluoromethyl)thieno[2,3-c]pyridin-4-yl)-5-(trifluoromethyl)-1H-pyrazole-4-carboxamide]
1120 nM | 692 nM | 813 nM | O=C(O)c1cnn(-c2ccc(NC(=O)c3cnn(-c4cccc5ncccc45)c3C(F)(F)F)cc2Cl)n1 [Cpd 228, 2-(2-chloro-4-(1-(quinolin-5-yl)-5-(trifluoromethyl)-1H-pyrazole-4-carboxamido)phenyl)-2H-1,2,3-triazole-4-carboxylic acid]
871 nM | 105 nM | 112 nM | O=C(Nc1cnc(-n2nccn2)c(Cl)c1)c1cnn(-c2cnc(C3CNC3)c3ccccc23)c1C(F)(F)F [Cpd 403, 1-(1-(azetidin-3-yl)isoquinolin-4-yl)-N-(5-chloro-6-(2H-1,2,3-triazol-2-yl)pyridin-3-yl)-5-(trifluoromethyl)-1H-pyrazole-4-carboxamide]
1230 nM | 407 nM | 794 nM | Cn1ncc2cc(NC(=O)c3cnn(-c4cccc5ncccc45)c3C(F)(F)F)cnc21 [Cpd 225, N-(1-methyl-1H-pyrazolo[3,4-b]pyridin-5-yl)-1-(quinolin-5-yl)-5-(trifluoromethyl)-1H-pyrazole-4-carboxamide]
162 nM | 5620 nM | 2690 nM | Cc1nc(-n2nccn2)c(Cl)cc1NC(=O)c1cnn(-c2ccc(F)c3nccn23)c1C(F)(F)F [Cpd 203, N-(5-chloro-2-methyl-6-(2H-1,2,3-triazol-2-yl)pyridin-3-yl)-1-(8-fluoroimidazo[1,2-a]pyridin-5-yl)-5-(trifluoromethyl)-1H-pyrazole-4-carboxamide]
1070 nM | 1410 nM | 759 nM | N#Cc1cc(NC(=O)c2cnn(-c3cccn4ccnc34)c2C(F)(F)F)cnc1-n1nccn1 [Cpd 230, N-(5-cyano-6-(2H-1,2,3-triazol-2-yl)pyridin-3-yl)-1-(imidazo[1,2-a]pyridin-8-yl)-5-(trifluoromethyl)-1H-pyrazole-4-carboxamide]
135 nM | 339 nM | 112 nM | Cc1nc(-n2cccn2)c(Cl)cc1NC(=O)c1cnn(-c2cccc3c(=O)[nH]ccc23)c1C(F)(F)F [Cpd 170, N-(5-chloro-2-methyl-6-(1H-pyrazol-1-yl)pyridin-3-yl)-1-(1-oxo-1,2-dihydroisoquinolin-5-yl)-5-(trifluoromethyl)-1H-pyrazole-4-carboxamide]
2570 nM | > 15100 nM | > 15100 nM | Cc1nc(-n2nccn2)c(Cl)cc1NC(=O)c1cnn(-c2cnc(C#N)c3sccc23)c1C(F)(F)F [Cpd 416, N-(5-chloro-2-methyl-6-(2H-1,2,3-triazol-2-yl)pyridin-3-yl)-1-(7-cyanothieno[2,3-c]pyridin-4-yl)-5-(trifluoromethyl)-1H-pyrazole-4-carboxamide]
71 nM | 6610 nM | 2140 nM | O=C1CO[C@@H](c2ncc(-n3ncc(C(=O)Nc4cnc(-n5nccn5)c(Cl)c4)c3C(F)(F)F)c3ccccc23)C1 (single isomer, unassigned) [Cpd 438, (*R)—N-(5-chloro-6-(2H-1,2,3-triazol-2-yl)pyridin-3-yl)-1-(1-(4-oxotetrahydrofuran-2-yl)isoquinolin-4-yl)-5-(trifluoromethyl)-1H-pyrazole-4-carboxamide]
138 nM | 3470 nM | 1180 nM | Cc1cn(-c2nc(C)c(NC(=O)c3cnn(-c4cccc5c(=O)[nH]ccc45)c3C(F)(F)F)cc2Cl)nn1 [Cpd 362, N-(5-chloro-2-methyl-6-(4-methyl-1H-1,2,3-triazol-1-yl)pyridin-3-yl)-1-(1-oxo-1,2-dihydroisoquinolin-5-yl)-5-(trifluoromethyl)-1H-pyrazole-4-carboxamide]
4900 nM | 537 nM | 269 nM | O=C1COc2ccc(NC(=O)c3cnn(-c4cccc5ncccc45)c3C(F)(F)F)cc2N1 [Cpd 217, N-(3-oxo-3,4-dihydro-2H-benzo[b][1,4]oxazin-6-yl)-1-(quinolin-5-yl)-5-(trifluoromethyl)-1H-pyrazole-4-carboxamide]
13 nM | 46 nM | 50 nM | C[C@H](O)c1ncc(-n2ncc(C(=O)Nc3cnc(-n4nccn4)c(Cl)c3)c2C(F)(F)F)c2ccccc12 (single isomer, unassigned) [Cpd 443, (*S)—N-(5-chloro-6-(2H-1,2,3-triazol-2-yl)pyridin-3-yl)-1-(1-(1-hydroxyethyl)isoquinolin-4-yl)-5-(trifluoromethyl)-1H-pyrazole-4-carboxamide]
105 nM | > 15100 nM | 955 nM | N#Cc1cc(NC(=O)c2cnn(-c3cccc4nc(N)nn34)c2C(F)(F)F)cnc1-n1nccn1 [Cpd 159, 1-(2-amino-[1,2,4]triazolo[1,5-a]pyridin-5-yl)-N-(5-cyano-6-(2H-1,2,3-triazol-2-yl)pyridin-3-yl)-5-(trifluoromethyl)-1H-pyrazole-4-carboxamide]
19 nM | > 15100 nM | 955 nM | N#Cc1ncc(-n2ncc(C(=O)Nc3cnc(-n4nccn4)c(Cl)c3)c2C(F)(F)F)c2ccccc12 [Cpd 414, N-(5-chloro-6-(2H-1,2,3-triazol-2-yl)pyridin-3-yl)-1-(1-cyanoisoquinolin-4-yl)-5-(trifluoromethyl)-1H-pyrazole-4-carboxamide]
1120 nM | 912 nM | 331 nM | O=C(Nc1cnc2[nH]ncc2c1)c1cnn(-c2cccc3ncccc23)c1C(F)(F)F [Cpd 229, N-(1H-pyrazolo[3,4-b]pyridin-5-yl)-1-(quinolin-5-yl)-5-(trifluoromethyl)-1H-pyrazole-4-carboxamide]
5370 nM | 912 nM | 339 nM | Cn1ccc2ccc(NC(=O)c3cnn(-c4cccc5ncccc45)c3C(F)(F)F)cc2c1=O [Cpd 216, N-(2-methyl-1-oxo-1,2-dihydroisoquinolin-7-yl)-1-(quinolin-5-yl)-5-(trifluoromethyl)-1H-pyrazole-4-carboxamide]
54 nM | 95 nM | 93 nM | N#Cc1ncc(-n2ncc(C(=O)Nc3cnc(-n4nccn4)c(Cl)c3)c2C(F)(F)F)c2ccsc12 [Cpd 415, N-(5-chloro-6-(2H-1,2,3-triazol-2-yl)pyridin-3-yl)-1-(7-cyanothieno[2,3-c]pyridin-4-yl)-5-(trifluoromethyl)-1H-pyrazole-4-carboxamide]
229 nM | 589 nM | 316 nM | COC(=O)c1ncc(NC(=O)c2cnn(-c3cccc4ncccc34)c2C(F)(F)F)cc1Cl [Cpd 258, methyl 3-chloro-5-(1-(quinolin-5-yl)-5-(trifluoromethyl)-1H-pyrazole-4-carboxamido)picolinate]
224 nM | 1480 nM | 1120 nM | O=C(Nc1ccnc(C(F)(F)F)c1)c1cnn(-c2ccc(F)c3nccn23)c1C(F)(F)F [Cpd 209, 1-(8-fluoroimidazo[1,2-a]pyridin-5-yl)-5-(trifluoromethyl)-N-(2-(trifluoromethyl)pyridin-4-yl)-1H-pyrazole-4-carboxamide]
